Activity calls are given as the source filed them. No cut-off for these calls is given here.
Tests used:
Liver [1] = test: Increase in oxygen consumption rate of mitochondrial state 4 respiration in ICR mouse liver fraction at 20 uM by Clark-type oxygen electrode assay; assay type: functional
Mus musculus [2] = test: Antiobesity activity in ICR mouse assessed as body weight reduction at 0.4 to 0.8 mg/kg/week, ip for 6 weeks measured after 6 weeks relative to control; assay type: functional; set-up: scale not given: the % may be the effect or the level left; details: route intraperitoneal
Mus musculus [3] = test: Toxicity in ICR mouse assessed as lesions in liver at 0.4 to 0.8 mg/kg/week, ip for 6 weeks measured after 6 weeks relative to control; assay type: organism-based; set-up: route intraperitoneal; details: in vivo, 1008 h
Liver [4] = test: Toxicity in ICR mouse liver fraction assessed as ROS production at 1 to 20 uM by Clark-type oxygen electrode assay; assay type: tissue-based
Mus musculus [5] = test: Toxicity in ICR mouse assessed as lesions in kidney at 0.4 to 0.8 mg/kg/week, ip for 6 weeks measured after 6 weeks relative to control; assay type: organism-based; set-up: route intraperitoneal; details: in vivo, 1008 h
Liver [6] = test: Increase in oxygen consumption rate of mitochondrial state 4 respiration in ICR mouse liver fraction at 10 uM by Clark-type oxygen electrode assay; assay type: functional
Liver [7] = test: Increase in oxygen consumption rate of mitochondrial state 3 respiration in ICR mouse liver fraction at 20 uM by Clark-type oxygen electrode assay; assay type: functional

| SMILES | Activity (Liver [1]) | also measured |
| --- | --- | --- |
| CCCCCOc1cc(C(=O)OCC=C(C)C)nc2c(OCC=C(C)C)cccc12 | Active |  |
| COc1cc(C(=O)OCCC(C)C)nc2c(OCC=C(C)C)cccc12 | inactive |  |
| CC(C)=CCOC(=O)c1cc(OCC=C(C)C)c2cccc(OCC=C(C)C)c2n1 | Active | Activity (Mus musculus [2]): 6%; Activity (Mus musculus [3]): Non-toxic; Activity (Liver [4]): Non-toxic; Activity (Mus musculus [5]): Non-toxic; Activity (Liver [6]): Active; Activity (Liver [7]): inactive |
| COc1cc(C(=O)OC/C=C(\C)CCC=C(C)C)nc2c(OCC=C(C)C)cccc12 | inactive |  |
| COc1cc(C(=O)OCC=C(C)C)nc2c(OC)cccc12 | inactive |  |
| COc1cc(C(=O)NCC=C(C)C)nc2c(OCC=C(C)C)cccc12 | inactive |  |
| COC(=O)c1cc(OC)c2cccc(OCC=C(C)C)c2n1 | inactive |  |
| COc1cc(C(=O)OCC=C(C)C)nc2c(OCC=C(C)C)cccc12 | Active | Activity (Liver [4]): Non-toxic; Activity (Liver [7]): inactive |
| COc1cc(C(=O)OCC=C(C)C)nc2c(OC/C=C(\C)CCC=C(C)C)cccc12 | inactive |  |
| COc1cc(C(=O)OCC=C(C)C)nc2c(OCCC(C)C)cccc12 | inactive |  |
| COc1cc(C(=O)OCC=C(C)C)nc2c(OC3CCCC3)cccc12 | inactive |  |
| COc1cc(C(=O)OC2CCCC2)nc2c(OCC=C(C)C)cccc12 | inactive |  |
